Assay results taken from ChEMBL document CHEMBL1201862, “PubChem BioAssay data set” (2004).
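Exposure lasted 48 hours, with cells grown in 96-well plates and compounds tested at five concentrations. GI50: concentration for 50% inhibition of growth.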 The source made the active and inactive calls. Cut-off read from the data, not from the text of the source: active = GI50 up to about 1.1 µM and inactive = higher.

Tests used:
Experiment in all cases: DTP human tumour cell line panel, 48 h
EKVX = system: EKVX
Malme-3M = system: Malme-3M
OVCAR-8 = system: OVCAR-8
NCI-H23 = system: NCI-H23
MDA-MB-231 = system: MDA-MB-231
OVCAR-3 = system: OVCAR-3
RXF 393 = system: RXF 393
NCI/ADR-RES = system: NCI/ADR-RES
OVCAR-5 = system: OVCAR-5
SF-268 = system: SF-268
RPMI-8226 = system: RPMI-8226
T47D = system: T47D
MCF7 = system: MCF7
MOLT-4 = system: MOLT-4
SN12C = system: SN12C
HT-29 = system: HT-29
SR = system: SR
SNB-78 = system: SNB-78
DMS-273 = system: DMS-273

SMILES | GI50 (EKVX) | GI50 (Malme-3M) | GI50 (OVCAR-8) | GI50 (NCI-H23) | GI50 (MDA-MB-231) | GI50 (OVCAR-3) | GI50 (RXF 393) | GI50 (NCI/ADR-RES) | GI50 (OVCAR-5) | GI50 (SF-268) | GI50 (RPMI-8226) | GI50 (T47D) | GI50 (MCF7) | GI50 (MOLT-4) | GI50 (SN12C) | GI50 (HT-29) | GI50 (SR) | GI50 (SNB-78) | GI50 (DMS-273)
Cc1cc(O)c(C=O)c2c1C(=O)Oc1c(CO)c(O)c3c(c1O2)C(O)OC3=O (configuration not stated) [SLAZINIC ACID] | > 100 µM (inactive) | 41 µM (inactive) | 52.7 µM (inactive) | > 100 µM (inactive) | > 100 µM (inactive) | 77.1 µM (inactive) | 87.5 µM (inactive) | 44.7 µM (inactive) | > 100 µM (inactive) | 34.4 µM (inactive) | 17.4 µM (inactive) | 54.5 µM (inactive) | 24.5 µM (inactive) | 22.1 µM (inactive) | > 100 µM (inactive) | > 100 µM (inactive) | 22.6 µM (inactive) |  | 
O=S(=O)(c1cccc(N=C=S)c1)c1cccc(N=C=S)c1 | > 100 µM (inactive) | 18.9 µM (inactive) | > 10 µM (inactive) | 17.1 µM (inactive) |  | 11.6 µM (inactive) | 8.11 µM (inactive) |  | 47 µM (inactive) | 18.2 µM (inactive) | 28.7 µM (inactive) |  |  | 4.85 µM (inactive) | 22 µM (inactive) |  |  | 30.6 µM (inactive) | 18.7 µM (inactive)
O=C(O)C1CC2(C1)CC(C(=O)O)C2 (configuration not stated) | > 100 µM (inactive) | > 100 µM (inactive) |  | > 100 µM (inactive) | > 100 µM (inactive) | > 100 µM (inactive) | > 100 µM (inactive) | > 100 µM (inactive) | > 100 µM (inactive) |  | > 100 µM (inactive) | > 100 µM (inactive) | > 100 µM (inactive) | > 100 µM (inactive) | > 100 µM (inactive) | > 100 µM (inactive) | > 100 µM (inactive) |  | 
CN1C2CCC1CC(=CCOC(c1ccc(F)cc1)c1ccc(F)cc1)C2 | 18.8 µM (inactive) | 13.2 µM (inactive) | 17.1 µM (inactive) | 17.7 µM (inactive) | 17.9 µM (inactive) | 17 µM (inactive) | 14.5 µM (inactive) | 23.3 µM (inactive) | 17.4 µM (inactive) | 12.9 µM (inactive) | 15.3 µM (inactive) | 17.6 µM (inactive) | 16.6 µM (inactive) | 15 µM (inactive) | 17.3 µM (inactive) | 5.21 µM (inactive) | 15.8 µM (inactive) |  | 
COc1cccc(N(CN2C(=O)CCC2C(=O)O)C(C)=O)c1 (configuration not stated) | > 100 µM (inactive) | > 100 µM (inactive) | > 100 µM (inactive) | > 100 µM (inactive) | > 100 µM (inactive) | > 100 µM (inactive) | > 100 µM (inactive) | > 100 µM (inactive) | > 100 µM (inactive) | > 100 µM (inactive) | > 100 µM (inactive) | > 100 µM (inactive) | > 100 µM (inactive) | > 100 µM (inactive) | > 100 µM (inactive) | > 100 µM (inactive) | > 100 µM (inactive) |  | 
CCCCn1c2c(n(CCCC)c1=S)-c1c(n(CCCC)c(=S)n1CCCC)S[Se][Se]S2 | 6.01 µM (inactive) | 0.625 µM (active) | 4.16 µM (inactive) | 13.2 µM (inactive) | 2.33 µM (inactive) | 0.931 µM (active) | 3.96 µM (inactive) | 21.1 µM (inactive) | 2.17 µM (inactive) | 7.13 µM (inactive) | 2.49 µM (inactive) | 0.294 µM (active) | 6.64 µM (inactive) | 2.87 µM (inactive) | 7.11 µM (inactive) | 7.23 µM (inactive) | 5.19 µM (inactive) |  | 
COC(=O)c1ccc(C)cc1CC1Cc2ccc(C)cc2C1=O (configuration not stated) | 8.04 µM (inactive) | 5.24 µM (inactive) | 12.2 µM (inactive) | 15.7 µM (inactive) | 14.9 µM (inactive) | 6.17 µM (inactive) | 10.1 µM (inactive) | 2.59 µM (inactive) | 19.5 µM (inactive) | 12.2 µM (inactive) | 7.91 µM (inactive) | 5.55 µM (inactive) | 4.39 µM (inactive) | 5.68 µM (inactive) | 12.2 µM (inactive) | 3.47 µM (inactive) | 3.05 µM (inactive) |  | 
Nc1nc(CCl)nc(Nc2ccccc2)n1 |  | 17.4 µM (inactive) | 30.2 µM (inactive) | 18.6 µM (inactive) |  | 17.2 µM (inactive) |  |  | 19.9 µM (inactive) | 19.2 µM (inactive) | 4.1 µM (inactive) |  |  | 15.8 µM (inactive) |  | 12.5 µM (inactive) | 12.9 µM (inactive) |  | 4.16 µM (inactive)
OCc1ccc2c(c1)CC1(C2)Cc2cc3c(cc2C1)CCC3 | 8.04 µM (inactive) | 4.71 µM (inactive) | 10.8 µM (inactive) | 4.3 µM (inactive) | 1.34 µM (inactive) | 3.02 µM (inactive) | 2.58 µM (inactive) | 2.9 µM (inactive) | > 100 µM (inactive) | 17.5 µM (inactive) | 2.76 µM (inactive) | 4.82 µM (inactive) | 2.5 µM (inactive) | 4.41 µM (inactive) | 2.45 µM (inactive) | 2.22 µM (inactive) | 1.14 µM (inactive) |  | 
CC(C)CCCC(C)C1CCC2C3CC([N+](=O)[O-])=C4CC(O)CCC4(C)C3CCC12C (configuration not stated) | 27 µM (inactive) | 19.8 µM (inactive) | 21.7 µM (inactive) | 22.7 µM (inactive) |  | 23.9 µM (inactive) | 23.6 µM (inactive) |  |  | 24.3 µM (inactive) | 5.02 µM (inactive) |  |  | 24.2 µM (inactive) | 18.2 µM (inactive) | 17.9 µM (inactive) | 15 µM (inactive) |  | 12.6 µM (inactive)
O=C1Oc2ccccc2C(=O)/C1=C\Nc1nc(-c2ccc(O)c(O)c2)cs1 | 12.7 µM (inactive) | 2.99 µM (inactive) | 4.14 µM (inactive) | 2.81 µM (inactive) | 5.7 µM (inactive) | 2.29 µM (inactive) | 6.03 µM (inactive) | 4.46 µM (inactive) | 16.2 µM (inactive) | 5.25 µM (inactive) | 1.53 µM (inactive) | 4.55 µM (inactive) | 3.94 µM (inactive) | 0.447 µM (active) | 4.79 µM (inactive) | 4.63 µM (inactive) | 1.19 µM (inactive) |  | 
C[C@@H]1C(=O)CC2(O)[C@@]13C[C@@H](OC(=O)[C@@H]3O)[C@@H](C)[C@@]21COC1=O (some centres not stated) | > 100 µM (inactive) | > 100 µM (inactive) | > 100 µM (inactive) | > 100 µM (inactive) | > 100 µM (inactive) | > 100 µM (inactive) | > 100 µM (inactive) | > 100 µM (inactive) | > 100 µM (inactive) | > 100 µM (inactive) | > 100 µM (inactive) | > 100 µM (inactive) | > 100 µM (inactive) | > 100 µM (inactive) | > 100 µM (inactive) | > 100 µM (inactive) | > 100 µM (inactive) |  | 
CCNC(=O)c1ccc(C)c(/N=N/N(C)C)c1 | > 100 µM (inactive) |  | > 100 µM (inactive) | > 100 µM (inactive) |  | > 100 µM (inactive) |  |  |  | 77.1 µM (inactive) |  |  |  |  | > 100 µM (inactive) | > 100 µM (inactive) |  | > 100 µM (inactive) | > 100 µM (inactive)
COC(=O)C1(CCC(C)=O)CCCCCC1=O (configuration not stated) | > 100 µM (inactive) | > 100 µM (inactive) |  | > 100 µM (inactive) | > 100 µM (inactive) | > 100 µM (inactive) | > 100 µM (inactive) | > 100 µM (inactive) | > 100 µM (inactive) | > 100 µM (inactive) | > 100 µM (inactive) | > 100 µM (inactive) | > 100 µM (inactive) | > 100 µM (inactive) | > 100 µM (inactive) | > 100 µM (inactive) | > 100 µM (inactive) |  | 
Cc1ccc(/N=C2N=C(Cl)/C(=C\c3ccccc3)N\2)cc1 | > 100 µM (inactive) | > 100 µM (inactive) | > 25.8 µM (inactive) | > 100 µM (inactive) | > 100 µM (inactive) | > 100 µM (inactive) | > 100 µM (inactive) | > 38.5 µM (inactive) | > 100 µM (inactive) | > 100 µM (inactive) | 5.11 µM (inactive) | 88.7 µM (inactive) | > 100 µM (inactive) | 2.33 µM (inactive) | > 100 µM (inactive) | > 100 µM (inactive) | 0.625 µM (active) |  | 
CC1=C(C(=O)Nc2ccccc2C)C(c2ccc(N(C)C)cc2)C(C(=O)Nc2ccccc2C)=C(C)N1 | > 100 µM (inactive) | 82.6 µM (inactive) | 88.5 µM (inactive) | 58.7 µM (inactive) |  | > 100 µM (inactive) | 35.5 µM (inactive) |  | > 100 µM (inactive) | 70.5 µM (inactive) | 17.1 µM (inactive) |  |  | 26.8 µM (inactive) | 83.6 µM (inactive) | > 100 µM (inactive) |  |  | 64.9 µM (inactive)
OC1c2ccccc2[C@@H]2[C@H]1[C@@H](c1ccccc1)C1(Cc3ccccc3C1O)[C@H]2c1ccccc1 (some centres not stated) | 6.35 µM (inactive) | 5.53 µM (inactive) | 5.45 µM (inactive) | 6.4 µM (inactive) | 5.22 µM (inactive) | 2.36 µM (inactive) | 2 µM (inactive) | 5.36 µM (inactive) | 11.1 µM (inactive) | 6.7 µM (inactive) | 2.84 µM (inactive) | 6.71 µM (inactive) | 1.99 µM (inactive) | 2.45 µM (inactive) | 1.77 µM (inactive) | 2.29 µM (inactive) | 1.11 µM (active) |  | 
N#CC(C#N)/N=N/c1ccc(-c2nc3ccccc3[nH]2)cc1 | 50.7 µM (inactive) | 13.6 µM (inactive) | 23.1 µM (inactive) | 20 µM (inactive) | 13.7 µM (inactive) | 13.8 µM (inactive) | 19.2 µM (inactive) | 17.6 µM (inactive) | > 100 µM (inactive) | 28.2 µM (inactive) | 20.7 µM (inactive) | 16.6 µM (inactive) | 11.1 µM (inactive) | 10.9 µM (inactive) | > 100 µM (inactive) | 28.7 µM (inactive) | 18.5 µM (inactive) |  | 
